Twelve molecules from PubChem BioAssay (NCI) can be followed below.

SMILES strings stand for the structures.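 Assay format: 96-well plates, 48-hour exposure. At the TGI there is no net growth.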

What all share (assay): NCI-60 cell line screen, 48 h
Experiment [1] relates to NCI-H23 lung.
Experiment [2] relates to NCI/ADR-RES ovarian.
For experiment [3], the system named is IGROV1 ovarian.
Experiment [4] deals with MDA-MB-231 breast.
Experiment [5] relates to SF-539 CNS.
Experiment [6] deals with NCI-H226 lung.
Experiment [7] has as its system 786-0 renal.
The subject of experiment [8] is RPMI-8226 leukemia.
The subject of experiment [9] is SF-268 CNS.
In experiment [10] the test system is CAKI-1 renal.
Experiment [11] relates to HT29 colon.

For `COc1ccc2cc(CN3CCC(C4CCNCC4)CC3)ccc2c1`, the TGI in [1] was determined as 33 µM; in experiment [2], 21 µM; in experiment [3], 15.2 µM; in experiment [4], 5.08 µM; in experiment [5], 4.03 µM; in experiment [6], 29.2 µM. The TGI was 3 µM in experiment [7]; 4.61 µM in experiment [8]; greater than 22.3 µM in [9]; 6.03 µM in experiment [10]; 2.65 µM in [11].

With `COc1ccc(OC)c(NS(=O)(=O)c2ccc3nc(C)n(NS(=O)(=O)c4cc(OC)ccc4OC)c(=O)c3c2)c1`, the TGI in [1], in [2], in experiment [3], in experiment [4], in experiment [5] and in [6] was greater than 100 µM each time. The TGI in experiment [7], in experiment [8], in experiment [9], in experiment [10] and in [11] was greater than 100 µM each time.

Take `CC(=O)N=C1N(/C=C2\C(=O)Oc3ccccc3C2=O)C(=O)/C(=C/c2ccc(Cl)cc2Cl)N1C`: the TGI in [1], in experiment [2], in experiment [3], in experiment [4], in experiment [5] and in experiment [6] was greater than 100 µM each time. Also, the TGI in [7], in experiment [8], in experiment [9], in experiment [10] and in experiment [11] was greater than 100 µM in each case.

As for `COc1cc2c(=O)cnoc2cc1O`, the TGI in experiment [1], in [2], in [3], in experiment [4], in experiment [5] and in experiment [6] was greater than 100 µM each time. In addition, the TGI in [7], in [8], in experiment [9], in experiment [10] and in experiment [11] was greater than 100 µM throughout.

As for `Cc1ccc(/C=N/Nc2ccc3ccccc3n2)s1`, the TGI in experiment [1] is greater than 100 µM; in experiment [2] it was greater than 100 µM; in experiment [3], 53.8 µM; in experiment [4], 65.9 µM; in [5] it was greater than 100 µM; in experiment [6], greater than 100 µM. Also, the TGI is 35.8 µM in experiment [7]; 86.9 µM in [8]; greater than 100 µM in experiment [9]; greater than 100 µM in experiment [10]; 44 µM in experiment [11].

As for `COc1cc2c(cc1OC)C1(COc3cc(O)c(O)c(O)c3C1=O)C2` (configuration not stated), the TGI in [1], in experiment [2], in experiment [3], in [4], in experiment [5] and in experiment [6] was greater than 50 µM in each case. Also, the TGI in experiment [7], in experiment [8], in [9], in experiment [10] and in experiment [11] was greater than 50 µM in each case.

Take `Clc1ccc(C(SCc2ccccc2)SCc2ccccc2)cc1`: the TGI in experiment [1], in [2], in experiment [3], in [4], in experiment [5] and in [6] was greater than 10 µM in each case. The TGI in experiment [7], in experiment [8], in experiment [9], in experiment [10] and in [11] was greater than 10 µM each time.

Regarding `CCOC(=O)/C(C#N)=C/c1ccnc2ccccc12`, the TGI was greater than 100 µM in experiment [1]; 52 µM in [2]; greater than 100 µM in experiment [3]; greater than 100 µM in [4]; 50 µM in experiment [5]; greater than 100 µM in [6]. Further, the TGI in [7] is greater than 100 µM; in experiment [8] it was 92.5 µM; in experiment [9], greater than 100 µM; in experiment [10], greater than 100 µM; in experiment [11], greater than 100 µM.

Consider `C=CCO[C@]1(CC=C)C(=O)C(=O)OC1C1COC(C)(C)O1` (some centres not stated), for which the TGI in experiment [1], in experiment [2], in experiment [3], in [4], in experiment [5] and in experiment [6] was greater than 100 µM throughout. Moreover, the TGI in experiment [7] was greater than 100 µM; in experiment [8], 73 µM; in experiment [9], greater than 100 µM; in experiment [10] it was 41.9 µM; in [11], 37.2 µM.

For `Cc1ccc2oc(=O)c(C(=O)Nc3nc(C45CC6CC(CC(C6)C4)C5)cs3)cc2c1`, the TGI in experiment [1], in experiment [2], in experiment [3], in [4], in [5] and in [6] was greater than 100 µM throughout. Moreover, the TGI in experiment [7], in [8], in experiment [9], in [10] and in experiment [11] was greater than 100 µM throughout.

`c1c[nH]c(C23C4C5C6C4C2C6C53)n1` (configuration not stated): the TGI in [1], in experiment [2], in experiment [3], in experiment [4], in experiment [5] and in experiment [6] was greater than 100 µM in each case. Besides, the TGI in [7], in experiment [8], in experiment [9], in experiment [10] and in experiment [11] was greater than 100 µM each time.

With `Nc1nn2c(nc(N)c3c(N)[nH]nc32)c1N=Nc1ccc(Br)cc1`, the TGI in [1] is greater than 7.37 µM; in experiment [2] it was greater than 100 µM; in [3], greater than 100 µM; in experiment [4], 1.87 µM; in experiment [5] it was 49.6 µM; in experiment [6], greater than 100 µM. The TGI was greater than 95.3 µM in [7]; greater than 100 µM in experiment [8]; 36.1 µM in experiment [9]; greater than 100 µM in [10]; greater than 100 µM in [11].
